What was measured:
His-tagged CRBN = His-tagged CRBN (Homo sapiens, UniProt Q96SW2); test: AlphaLISA assay with biotinylated pomalidomide and His-tagged CRBN; type: binding; details: competition with biotinylated pomalidomide
Description: To determine whether JQAD1 interacts with the E3 ligase receptor CRBN, the AlphaLISA® platform was used to perform AlphaLISA® fluorescent assays using biotinylated pomalidomide bound to beads and His-tagged CRBN (Yasgar et al. Methods Mol. Biol. 1439:77-98 (2016)). […] Next, biotinylated JQAD1 (Biotin-JQAD1, Scheme 2) was synthesized and incubated with Kelly cell lysates, followed by streptavidin-based purification. […] PROTAC®s may acquire preferential specificity for one of two possible target enzymes due to restricted three-dimensional interactions, as noted in Burslem and Crews, Cell 181:102-14 (2020).
Assays were performed with minimal modifications from the manufacturer's protocol (PerkinElmer®, USA). Briefly, a 2× solution of components with final concentrations of CRBN-DDB1 at 50 nM, Ni-coated Acceptor Beads at 20 μg/ml, and 15 nM biotinylated-pomalidomide were added in […] to 384-well plates (AlphaPlate-384, PerkinElmer®, USA). 100 nL of compound in DMSO from stock plates were added by pin transfer using a Janus Workstation (PerkinElmer®, USA). Streptavidin-coated donor beads (20 μg/ml final) were added to the solution, followed by incubation at room temperature for 1 hour, and reading on an Envision 2104 (PerkinElmer®, USA), by the manufacturer's protocol.

MYCN = test: Western blotting of MYCN (whole lysates and chromatin extracts); type: cell-based, human
Description: (§1) Cells growing in culture were lysed for whole cell lysates as described in Durbin et al. Nat. Genet. 50:1240-1246 (2018) and Wang et al. Nat. Commun. 10:5622 (2019). Nuclear lysates were prepared using the NE-PER® nuclear lysate kit (Thermo Scientific™) according to the manufacturer's protocol. Chromatin lysates were prepared with the total histone extraction kit (Epigentek). Briefly, equivalent amounts of protein were resolved by western blotting using 4-12% Bis-Tris NuPAGE™ gels (Thermo-Fisher Scientific) prior to transfer, and immunoblotting using primary antibodies to: MYCN (1:1000, Cell Signaling Technology®), H3K27ac (1:1000, Abcam), total H3 (1:1000, Cell Signaling Technology®), EP300 (1:1000, Abcam), CBP (1:500, Cell Signaling Technology®), Cas9 (1:1000, Cell Signaling Technology®), cleaved-PARP1 (1:1000, Cell Signaling Technology), cleaved Caspase-3 (1:1000, Cell Signaling Technology®), β-actin (1:1000, Cell Signaling Technology®), GATA3 (1:1000, EMD Millipore™), TFAP2β (1:1000, Cell Signaling Technology®), Vinculin (1:1000, EMD Millipore™), CRBN (1:1000, Cell Signaling Technology®), HAND2 (1:1000, Santa Cruz Biotechnology). Secondary antibodies were horseradish peroxidase (HRP)-conjugated anti-rabbit or anti-mouse (1:5000, Santa Cruz Biotechnology), incubated prior to exposure to enhanced chemiluminescence reagents (GE, Amersham). For immunoprecipitation, equal amounts of protein were diluted in buffer C as described in Mansour et al. Science 346:1373-1377 (2014) and incubated with antibodies covalently conjugated to Dynabeads™ M-270 beads (Thermo-Fisher Scientific) overnight according to the manufacturer's directions. Antibodies used included: H3K27ac, EP300 (Abcam), CBP, TFAP2β (Cell Signaling Technology®), rabbit immunoglobulin G (IgG) (Santa Cruz Biotechnology®). Immunoprecipitated protein was isolated as per the manufacturer's directions and subjected to western blotting, as described above, or mass spectrometry.

[1] = tested on: Kelly-Cas9 control or CRBN knockout cells; test: CellTiter-Glo assay of Kelly-Cas9 control or CRBN knockout cells; type: cell-based, human; details: range of doses, seven days
Description: (§2) Cells were infected with lentiviruses encoding sgRNAs or treated with compounds as described. Colony assays were performed by replating cells at 500 cells per well in 6-well dishes and grown in regular growth media for 10 d before 100% methanol fixation, 0.05% crystal violet staining, and quantitation. Experiments were completed in triplicate; data shown are the average of three independent experiments. Cell Titer-Glo® assay was performed as per the manufacturer's instructions (Promega®). Briefly, 1000 cells/well were plated into 96-well plates and treated with a range of compound dosing. Cell viability was measured at the noted time points based on luminescence by the Cell Titer-Glo® assay (Promega®) and read on an Envision 2104 (PerkinElmer®, USA) according to the manufacturer's protocol.
sgRNAs targeting individual genes were subcloned by standard methodologies within pLKO.5-EFGP. Kelly, SIMA, BE2C, and NGP cells were infected with lenticas9 followed by blasticidin selection. Stable expression of cas9 was established by western blotting of protein lysates using cas9 antibody (Cell Signaling Technology®). Following infection of pLKO.5-EGFP-sgRNA lentivirus, cells were cultured for the identified times prior to evaluation. BE2C cells were infected with pLC-zsgreen or pLC-CRBN lentiviruses and selected using 500 μg/mL hygromycin (Invitrogen™)

NB cell lines = test: Colony formation assays of NB cells with EP300/CBP inhibitors; type: cell-based, human; details: multiple NB cell lines (Kelly, BE2C, NB69, NGP); compared with C646 and CBP30
Description: as §2

[2] = tested on: Kelly, NGP and BE2C NB cells; test: Propidium iodide DNA flow cytometry (cell cycle, sub-G1); type: cell-based, human
Description: Cells were infected with lentiviruses encoding single guide RNAs (sgRNAs) or treated with compounds as described for the noted length of time. Cells were then liberated from adhesion to the plate using a sterile spatula (Coming®) followed by centrifugation, aspiration of media, and resuspension in hypotonic citrate-propidium iodide (PI) solution for 30 minutes at 37° C. (Tate et al. Cytometry 4:211-215 (1983)). Nuclei were stabilized using 5M NaCl prior to analysis on a FACSAria™ II (BD Biosciences). Analysis of cell cycle phases was performed using FlowJo® v10.7 (BD Biosciences).

[3] = tested on: cleaved caspase-3 and cleaved PARP1; test: Western blotting of apoptosis markers; type: cell-based, human
Description: as §1

H3K27ac = test: Western blotting of H3K27ac in treated NB cells; type: cell-based, human
Description: as §1

[4] = tested on: pro- and anti-apoptotic mRNA transcripts; test: ERCC spike-in RNA-seq of treated Kelly cells; type: cell-based, human; details: 500 nM, 24 h
Description: For in vitro analyses, total RNA was extracted from control […] or JQAD1 treated Kelly cells using TRIzolTM reagent (Ambion). Prior to extraction, exogenous spike-in of synthetic External RNA Control Consortium (ERCC) RNA controls were added based on cell number (Ambion). Samples were treated with RNAse-free DNAse I and spin purified using the Qiagen® RNeasy Kit (Qiagen®). Purified RNA samples were subjected to library construction with poly-adenylation preparation and sequencing using the Illumina NextSeq® 500 (paired end, 75bp reads). RNA-seq reads were aligned to a reference index containing the sequences of the hg19 revision of the human reference genome and the ERCC spike-in probes using hisat 2.1.0. Expression was quantified using sorted BAMs, a gene reference built using ERCC sizes and RefSeq genes downloaded Jul. 15, 2017, and htseq-count with parameters -I gene_id- stranded=reverse -f bam -m intersection-strict. Read counts were converted to transcripts per million (TPM) and used for cell number-normalization. The expression of all RefSeq genes and ERCC probes was floored at 0.01 and a pseudocount of 0.1 was added to all entries. Values were normalized by equilibrating the expression of the ERCC probes among experiments using normalize.loess from the affy R package. The ERCC-normalized expression of each gene after 24 h of either […] or JQAD1 treatment was compared against its expression in dimethyl sulfoxide (DMSO) treated samples to create two-fold changes.

[5] = BE2C 1 μM, Kelly 500 nM, seven days

His-tagged CRBN, sequence (Q96SW2 whole entry): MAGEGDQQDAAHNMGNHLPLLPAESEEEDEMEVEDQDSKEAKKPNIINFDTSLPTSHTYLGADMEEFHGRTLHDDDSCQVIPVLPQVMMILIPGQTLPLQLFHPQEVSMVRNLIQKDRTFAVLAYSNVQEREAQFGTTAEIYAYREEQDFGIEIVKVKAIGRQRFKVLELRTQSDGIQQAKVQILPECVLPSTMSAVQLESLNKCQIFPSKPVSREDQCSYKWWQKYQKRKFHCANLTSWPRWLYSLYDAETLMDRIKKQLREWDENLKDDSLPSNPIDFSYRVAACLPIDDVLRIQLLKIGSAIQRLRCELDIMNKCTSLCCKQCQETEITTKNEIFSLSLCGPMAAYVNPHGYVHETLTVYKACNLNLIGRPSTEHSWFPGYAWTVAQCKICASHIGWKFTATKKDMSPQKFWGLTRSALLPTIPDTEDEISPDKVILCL
His-tagged CRBN, sequence (Q16531 whole entry partner): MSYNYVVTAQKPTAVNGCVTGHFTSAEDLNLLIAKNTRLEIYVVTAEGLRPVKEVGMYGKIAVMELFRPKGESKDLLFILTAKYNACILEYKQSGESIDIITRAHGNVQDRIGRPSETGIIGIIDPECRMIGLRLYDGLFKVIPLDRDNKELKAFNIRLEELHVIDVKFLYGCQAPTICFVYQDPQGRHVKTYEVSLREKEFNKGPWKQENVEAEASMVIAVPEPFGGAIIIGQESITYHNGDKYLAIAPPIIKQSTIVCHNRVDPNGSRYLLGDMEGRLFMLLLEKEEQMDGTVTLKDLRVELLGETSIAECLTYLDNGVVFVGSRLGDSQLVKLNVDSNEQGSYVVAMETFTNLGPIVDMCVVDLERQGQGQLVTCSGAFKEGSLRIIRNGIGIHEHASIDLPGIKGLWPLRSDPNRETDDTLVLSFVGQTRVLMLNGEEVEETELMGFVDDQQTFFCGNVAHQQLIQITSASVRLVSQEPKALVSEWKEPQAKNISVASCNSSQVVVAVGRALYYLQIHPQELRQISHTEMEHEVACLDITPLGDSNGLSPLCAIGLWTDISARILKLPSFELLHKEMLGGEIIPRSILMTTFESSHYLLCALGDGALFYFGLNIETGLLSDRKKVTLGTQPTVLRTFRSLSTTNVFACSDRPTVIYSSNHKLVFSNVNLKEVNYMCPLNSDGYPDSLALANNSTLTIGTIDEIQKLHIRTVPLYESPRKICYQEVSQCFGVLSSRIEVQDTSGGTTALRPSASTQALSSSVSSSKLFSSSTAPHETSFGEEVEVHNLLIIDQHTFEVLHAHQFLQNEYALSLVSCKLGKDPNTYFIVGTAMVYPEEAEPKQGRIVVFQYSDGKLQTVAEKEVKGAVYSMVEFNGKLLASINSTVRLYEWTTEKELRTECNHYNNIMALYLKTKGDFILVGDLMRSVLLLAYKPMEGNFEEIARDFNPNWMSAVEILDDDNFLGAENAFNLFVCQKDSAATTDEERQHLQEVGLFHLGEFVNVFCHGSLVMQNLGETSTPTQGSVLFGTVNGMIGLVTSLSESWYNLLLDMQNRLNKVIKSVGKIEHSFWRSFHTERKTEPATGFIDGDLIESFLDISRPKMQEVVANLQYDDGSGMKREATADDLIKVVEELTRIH

Nc1cccc2c1C(=O)N(C1CCC(=O)NC1=O)C2=O (centres unmarked) [pomalidomide]
interaction with CRBN (His-tagged CRBN): efficiently interacted with CRBN

CNC(=O)Nc1ccc2c(c1)CC[C@@]21OC(=O)N(CC(=O)N(Cc2ccc(F)cc2)[C@@H](C)C(F)(F)F)C1=O [A485]
MYCN expression after prolonged treatment (MYCN; [5]): loss of MYCN expression
chromatin-bound MYCN (MYCN; Kelly cells, 0.5 and 1 μM, 24 h, chromatin extracts): did not show MYCN loss from chromatin extracts up to 1.0 μM
growth of CRBN-knockout Kelly cells [1]: equivalently inhibited the growth of both CRBN-knockout cells and controls
growth of control-edited Kelly cells [1]: equivalently inhibited the growth of both CRBN-knockout cells and controls
reduction of neuroblastoma colony formation (NB cell lines): most potent compound in reducing neuroblastoma colony formation
cell cycle effect ([2]; BE2C, Kelly, NGP cells, within 24 hours): G1 cell cycle arrest
cell cycle / subG1 effect ([2]; Kelly and NGP cells): G1 cell cycle arrest
cleaved caspase 3 and PARP1 after prolonged treatment [3, 5]: induction of cleaved caspase 3 and poly [ADP-ribose] polymerase 1 (PARP1)
apoptosis: cleavage of caspase-3 and PARP1 ([3]; Kelly (1 μM) and NGP (2.5 μM) cells, 12-36 h): little effect on these parameters
H3K27Ac modification after prolonged treatment (H3K27ac; [5]): global loss of the H3K27Ac modification
H3K27ac modification (H3K27ac; Kelly cells, 24 h): loss of H3K27ac
interaction with CRBN (His-tagged CRBN): did not
transcript levels of BIM, BID, PUMA, BAX, BCL2 and MCL1 [4]: unaffected
